Assay results: patent US20260325605A1, “INHIBITORS” (Zealand Pharma A/S, priority 2022, published 2026)

Assays:
Kv1.3 = target: T1, Kv1.3 (Homo sapiens, UniProt P22001); assay: Patch clamp assay (QPatch), Kv1.3; assay type: cell-based; conditions: CHO cells stably expressing human Kv1.3, read-out: Potency IC50, Kv1.3
T1 construct: expressed in transfected cells

Kv1.1 = target: T2, Kv1.1 (Homo sapiens, UniProt Q09470); assay: Patch clamp assay (QPatch), Kv1.1; assay type: cell-based; conditions: for IC50: QPatch, CHO cells stably expressing human Kv1.1, read-out: Potency IC50, Kv1.1; for Selectivity Kv1.1/Kv1.3: ratio of IC50 Kv1.1/Kv1.3
T2 construct: expressed in transfected cells
Method: (§1) Selectivity of Kv1.3 inhibitor peptides for Kv1.3 over other potassium ion channels (Kv1.1, Kv1.2 and Kv1.6) was determined using patch clamp assay.
(§2) Chinese Hamster Ovary (CHO) cell lines stably expressing exogenous human α-subunits of each potassium ion channel were grown and passaged under standard culture conditions.
(§3) The automated, chip-based planar patch clamp device QPatch® was used to quantitate the ionic currents. All recordings were made in the conventional whole-cell configuration after establishment of gigaohm seals. […] During experiments 0.1% (v/v) BSA was included as a vehicle in all external recording solutions. Currents were elicited from a holding potential of −80 mV using a voltage protocol, which shifted the voltage to 30 mV for 500 ms every 15 s.
(§4) Concentration-response relationships were established by cumulatively applying seven escalating concentrations of test sample to an individual cell with a recording period of 2 min per compound application.
(§5) The efficacy was determined as the mean charge for the last three sweeps at the end of each concentration application period from the cursor positions. The percent inhibition for each test dose application period was calculated as the reduction in mean cursor value (charge) relative to the cursor value measured at the end of the vehicle period and used to calculate the IC50 from the concentration response curve.

Kv1.2 = target: T3, Kv1.2 (Homo sapiens, UniProt P16389); assay: Patch clamp assay (QPatch), Kv1.2; assay type: cell-based; conditions: for IC50: QPatch, CHO cells stably expressing human Kv1.2, read-out: Potency IC50, Kv1.2; for Selectivity Kv1.2/Kv1.3: ratio of IC50 Kv1.2/Kv1.3
T3 construct: expressed in transfected cells

Kv1.6 = target: T4, Kv1.6 (Homo sapiens, UniProt P17658); assay: Patch clamp assay (QPatch), Kv1.6; assay type: cell-based; conditions: for IC50: QPatch, CHO cells stably expressing human Kv1.6, read-out: Potency IC50, Kv1.6; for Selectivity Kv1.6/Kv1.3: ratio of IC50 Kv1.6/Kv1.3
T4 construct: expressed in transfected cells
Method: as §1, §2, §3, §4, §5

[1] = Example 6: Pharmacokinetic characterisation after s.c. administration; assay type: in vivo, rat (Sprague Dawley or Wistar); conditions: rat, 70 nmol/kg; for AUCINF / Cmax: plasma; for T1/2: plasma terminal elimination half-life
Method: Sprague Dawley or Wistar rats (males with a body weight of approximately 250-350 g) were given a single subcutaneous (s.c.) injection of each peptide to be tested.
Following s.c. administration of the selected peptides (dose 70 nmol/kg, dosing volume either 2 or 5 mL/kg), blood samples were drawn at 15 min, 30 min, 45 min, 60 min, 90 min, 2 h, 3 h, 4 h post-dose. At each sampling time point, samples from the rats were drawn by sublingual bleeding or by tail cut. After last sampling the rats were sacrificed by O2/CO2 anaesthesia. The dosing vehicle was 10 mM phosphate, 0.8% NaCl, 0.05% Polysorbate 20 (pH 6.0).
Plasma samples were analyzed after solid phase extraction (SPE) by liquid chromatography mass spectrometry (LC-MS/MS). Mean plasma concentrations were used for calculation of the pharmacokinetic parameters using the non-compartmental approach in Phoenix WinNonlin 6.4 or a later version. […]. AUCinf is the area under the plasma concentration−time curve extrapolated to infinity (AUCinf=AUClast+Clast/λz, where Clast is the last observed plasma concentration). Cmax is the maximum observed concentration, occurring at Tmax.

[2] = tested on: T-cell activation in rat whole blood; assay: Example 4: IL-17A release in thapsigargin stimulated rat whole blood; assay type: cell-based, rat (Lewis or Sprague-Dawley); conditions: 24 Hr, at least 2 replicates, unit inferred, read-out: IC50 (inhibition of IL-17A release)
Excerpt: Rat whole blood was used to assess the potency of Kv1.3 inhibitor peptides on T-cell activation as determined by IL-17A release after stimulation with thapsigargin. Addition of thapsigargin results in activation of a signalling cascade ending up in activation of T cell proliferation and cytokine production where the Kv1.3 ion channel plays a key role, so activity of Kv1.3 inhibitors in primary cells can be measured in this experimental system.
Rat whole blood was obtained from healthy, naïve Lewis or Sprague-Dawley rats that were terminally bleed from the heart using Sodium Heparin blood sampling tubes for collection. Peptides were diluted to 4× final testing concentrations in assay buffer (DMEM+GlutaMAX), GlutaMAX is a medium comprising 3.97 mM L-alanine-L-glutamine (Gibco Cat #61965026) supplemented with 25 mM HEPES buffer, 1 mM Sodium Pyruvate, 100 units/ml Penicillin, 100 μg/ml Streptomycin and 0.05% Casein from bovine milk (Sigma-Aldrich)) and 25 μl was added to wells of a 96 well plate. Then 50 μl whole rat blood was added and incubated for minimum 5 minutes at room temperature to allow compound binding. Then 25 μl 40 μM thapsigargin diluted in assay buffer was added to all wells of the assay plates to activate the cells, followed by incubation for 24 Hr at 37° C./5% CO2 in a humidified box. The assay plates were centrifuged for 10 min at 300 g at 4° C. and the supernatants were transferred to new plates. The concentrations of IL-17A released to the supernatants were measured using a Rat IL-17A ELISA Kit (Abcam Cat #ab214028) as recommended by the manufacturer. Samples were diluted 2.5-fold by transferring 20 μl of the supernatants to wells on ELISA plates containing 30 μl buffer 75BS from the detection kit.
Data from peptides eliciting an inhibition of IL-17A were normalised relative to full thapsigargin activation (no inhibitor added) and no activation controls (addition of assay buffer instead of thapsigargin) to calculate the IC50 from the concentration response curve.
Results are shown in Table 5, expressed as IC50, with standard deviation (IC50_SD). All values are derived from at least 2 replicates. The biological effects ex vivo show a correlation with the potency of the peptides.

T3 sequence (P16389 whole entry): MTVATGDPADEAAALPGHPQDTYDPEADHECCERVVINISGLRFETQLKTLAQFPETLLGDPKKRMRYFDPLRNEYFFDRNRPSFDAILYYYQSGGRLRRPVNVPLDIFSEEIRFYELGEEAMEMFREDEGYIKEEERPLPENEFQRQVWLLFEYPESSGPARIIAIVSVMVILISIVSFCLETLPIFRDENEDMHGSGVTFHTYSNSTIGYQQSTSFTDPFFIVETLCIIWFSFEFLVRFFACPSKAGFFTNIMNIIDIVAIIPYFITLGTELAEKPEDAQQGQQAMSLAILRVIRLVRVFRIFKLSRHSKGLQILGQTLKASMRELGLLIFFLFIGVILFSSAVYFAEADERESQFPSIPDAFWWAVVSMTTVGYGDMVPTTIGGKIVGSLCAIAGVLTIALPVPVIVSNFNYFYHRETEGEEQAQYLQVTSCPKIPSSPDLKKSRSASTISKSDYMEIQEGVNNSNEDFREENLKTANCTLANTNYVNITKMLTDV
T2 sequence (Q09470 whole entry): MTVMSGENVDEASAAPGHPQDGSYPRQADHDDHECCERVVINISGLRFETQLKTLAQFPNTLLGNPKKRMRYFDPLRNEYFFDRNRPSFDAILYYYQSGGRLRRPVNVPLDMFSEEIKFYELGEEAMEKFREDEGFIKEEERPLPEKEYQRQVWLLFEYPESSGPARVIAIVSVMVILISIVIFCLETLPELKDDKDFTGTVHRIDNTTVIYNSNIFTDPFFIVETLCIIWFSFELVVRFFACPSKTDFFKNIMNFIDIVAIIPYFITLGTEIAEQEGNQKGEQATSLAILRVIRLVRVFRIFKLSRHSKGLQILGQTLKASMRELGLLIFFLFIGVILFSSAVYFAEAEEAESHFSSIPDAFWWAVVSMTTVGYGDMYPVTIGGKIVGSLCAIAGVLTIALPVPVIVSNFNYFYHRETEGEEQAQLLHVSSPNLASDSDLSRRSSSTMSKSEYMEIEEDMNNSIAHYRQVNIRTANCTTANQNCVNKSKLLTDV
T4 sequence (P17658 whole entry): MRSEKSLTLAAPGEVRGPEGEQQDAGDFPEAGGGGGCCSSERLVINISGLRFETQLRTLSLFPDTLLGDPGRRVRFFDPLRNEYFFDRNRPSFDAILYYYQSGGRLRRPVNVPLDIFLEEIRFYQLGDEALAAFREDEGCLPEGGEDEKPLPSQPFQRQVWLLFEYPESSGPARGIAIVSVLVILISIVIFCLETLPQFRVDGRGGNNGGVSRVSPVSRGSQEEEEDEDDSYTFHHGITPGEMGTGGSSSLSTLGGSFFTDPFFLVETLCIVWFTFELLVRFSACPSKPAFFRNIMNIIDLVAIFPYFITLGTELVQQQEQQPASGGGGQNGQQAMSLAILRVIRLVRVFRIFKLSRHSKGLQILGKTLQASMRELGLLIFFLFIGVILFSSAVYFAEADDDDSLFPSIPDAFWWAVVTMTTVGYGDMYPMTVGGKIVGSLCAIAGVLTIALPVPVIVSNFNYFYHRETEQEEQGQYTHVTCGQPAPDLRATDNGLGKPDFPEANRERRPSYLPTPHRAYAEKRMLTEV
T1 sequence (P22001 whole entry): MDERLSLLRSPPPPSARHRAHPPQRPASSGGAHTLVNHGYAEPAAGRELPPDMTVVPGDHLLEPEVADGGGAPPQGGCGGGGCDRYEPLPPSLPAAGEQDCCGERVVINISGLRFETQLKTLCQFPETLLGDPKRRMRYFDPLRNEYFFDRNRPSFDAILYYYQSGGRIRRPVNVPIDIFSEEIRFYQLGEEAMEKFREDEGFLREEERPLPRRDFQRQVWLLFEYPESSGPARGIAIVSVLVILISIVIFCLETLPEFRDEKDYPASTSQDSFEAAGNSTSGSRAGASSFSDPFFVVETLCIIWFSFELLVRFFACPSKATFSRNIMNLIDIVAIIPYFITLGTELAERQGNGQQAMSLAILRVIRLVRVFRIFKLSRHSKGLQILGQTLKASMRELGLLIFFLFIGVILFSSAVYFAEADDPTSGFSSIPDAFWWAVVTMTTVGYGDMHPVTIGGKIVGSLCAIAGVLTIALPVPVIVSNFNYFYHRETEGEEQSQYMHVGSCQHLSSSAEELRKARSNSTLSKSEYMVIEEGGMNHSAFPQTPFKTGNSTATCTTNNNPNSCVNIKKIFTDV

Substance	IC50 (Kv1.3)	IC50 (Kv1.1)	Selectivity Kv1.1/Kv1.3 (Kv1.1)	IC50 (Kv1.2)	Selectivity Kv1.2/Kv1.3 (Kv1.2)	IC50 (Kv1.6)	Selectivity Kv1.6/Kv1.3 (Kv1.6)	AUCINF [1]	Cmax [1]	T1/2 [1]	IC50 [2]
H-MDMRC(1)SASVEC(2)KQKC(3)LKAIGSIFGKC(1)MNKKC(2)KC(3)YPR-OH [Peptide 6]	0.38 nM	> 3000 nM	>7900	285 nM	747	> 3000 nM	>7900	0.0724 µM·h	48.4 nM	55.8 min	–
H-NIDMRC(1)SASVEC(2)KQKC(3)LKAIGSIFGKC(1)MNKKC(2)KC(3)YPR-OH [Peptide 9]	0.44 nM	> 3000 nM	>6800	376 nM	857	> 3000 nM	>6800	0.0983 µM·h	76.9 nM	37.2 min	–
H-NID[Nle]RC(1)SASVEC(2)KQKC(3)LKAIGSIFGKC(1)[Nle]NKKC(2)KC(3)YPR-OH [Peptide 98]	0.27 nM	> 3000 nM	>11300	2060 nM	7756	> 3000 nM	>11300	0.085 µM·h	46.5 nM	65.4 min	1.2 nM
H-NMDMRC(1)SASVEC(2)AQKC(3)LKAIGSIFGKC(1)MNKKC(2)KC(3)YPR-NH2 [Peptide 31]	0.14 nM	> 3000 nM	>22000	666 nM	4897	> 3000 nM	>22000	0.0467 µM·h	33.3 nM	44.4 min	0.41 nM
H-NMDMRC(1)SASVEC(2)KQKC(3)LYAIGSIFGKC(1)MNKKC(2)KC(3)YPR-NH2 [Peptide 54]	0.29 nM	> 3000 nM	>10300	149 nM	514	> 3000 nM	>10300	0.0311 µM·h	50 nM	52.2 min	–
H-N[Nle]D[Nle]RC(1)SASVEC(2)KQKC(3)KAIGSIFGKC(1)[Nle]NKKC(2)KC(3)YPR-NH2 [Peptide 50]	1.34 nM	> 3000 nM	>2200	164 nM	123	946 nM	707	–	–	–	1 nM
H-N[Nle]D[Nle]RC(1)SASVEC(2)KQKC(3)LKAIGSPFGKC(1)[Nle]NKKC(2)KC(3)YPR-NH2 [Peptide 63]	0.26 nM	> 3000 nM	>11600	449 nM	1740	2350 nM	9102	–	–	–	0.44 nM
H-N[Nle]D[Nle]RC(1)SHSVEC(2)KQKC(3)LKAIGSIFGKC(1)[Nle]NKKC(2)KC(3)YPR-NH2 [Peptide 48]	0.54 nM	> 3000 nM	>5600	772 nM	1438	609 nM	1134	–	–	–	0.83 nM
H-N[Nle]S[Nle]RC(1)SASVEC(2)KQKC(3)LKAIGSIFGKC(1)[Nle]NKKC(2)KC(3)YPR-NH2 [Peptide 47]	0.32 nM	> 3000 nM	>9400	302 nM	943	1400 nM	4359	–	–	–	0.79 nM
H-PIE[Nle]RC(1)SASVEC(2)KQKC(3)LAAIGSIFGKC(1)[Nle]NKKC(2)KC(3)YPR-OH [Peptide 105]	0.35 nM	> 3000 nM	>8600	1970 nM	5630	> 3000 nM	>8600	0.1318 µM·h	58.6 nM	54.6 min	0.61 nM
H-PIE[Nle]RC(1)SASVEC(2)KQKC(3)LKAIGSIFGKC(1)[Nle]NKKC(2)KC(3)YPR-OH [Peptide 99]	0.39 nM	> 3000 nM	>7800	1760 nM	4561	> 3000 nM	>7800	–	–	–	1.8 nM
H-P[Nle]D[Nle]RC(1)SASVEC(2)KQKC(3)LKAIGC(4)IFGKC(1)[Nle]NKKC(2)KC(3)YPC(4)-NH2 [Peptide 85]	0.63 nM	> 3000 nM	>4800	624 nM	995	1220 nM	1949	–	–	–	0.81 nM
H-P[Nle]E[Nle]RC(1)SASVEC(2)KQKC(3)LAAIGSIFGKC(1)[Nle]NKKC(2)KC(3)YPR-NH2 [Peptide 101]	0.18 nM	> 3000 nM	>16200	311 nM	1689	> 3000 nM	>16200	–	–	–	0.34 nM
H-RC(1)SASVEC(2)KQKC(3)LKAIGSIFGKC(1)[Nle]NKKC(2)KC(3)YPR-NH2 [Peptide 111]	0.4 nM	> 3000 nM	>7600	280 nM	708	1300 nM	3290	–	–	–	0.52 nM
H-S[Nle]DERC(1)SASVEC(2)KQKC(3)LKAIGSIFGKC(1)MNKKC(2)KC(3)YPR-NH2 [Peptide 78]	0.28 nM	> 3000 nM	>10600	122 nM	430	> 3000 nM	>10600	–	–	–	0.55 nM
H-S[Nle]D[Nle]RC(1)SASVEC(2)GQKC(3)LKAIGSIFGKC(1)MNKKC(2)KC(3)YPR-NH2 [Peptide 73]	0.11 nM	> 3000 nM	>27700	373 nM	3438	> 3000 nM	>27700	–	–	–	0.3 nM
H-S[Nle]D[Nle]RC(1)SASVEC(2)KQKC(3)LKAIGSIFGKC(1)MNKKC(2)KC(3)[F(4-NH2)]PR-NH2 [Peptide 72]	0.25 nM	> 3000 nM	>12200	423 nM	1720	> 3000 nM	>12200	–	–	–	0.79 nM
H-[Nle]D[Nle]RC(1)SASVEC(2)KQKC(3)LKAIGSIFGKC(1)[Nle]NKKC(2)KC(3)YPR-OH [Peptide 97]	0.17 nM	> 3000 nM	>17800	1860 nM	11034	> 3000 nM	>17800	–	–	–	0.55 nM
